Assay results: PMC9037210, “Novel 3-(6-methylpyridin-2-yl)coumarin-based chalcones as selective inhibitors of cancer-related carbonic anhydrases IX and XII endowed with anti-proliferative activity” (Journal of Enzyme Inhibition and Medicinal Chemistry, 2022)

What was measured:
[1] = system: MOLT-4; assay: NCI single (10 µM) dose SRB screening, MOLT-4; assay type: cell-based, human; details: 10 µM single dose, MOLT-4, Leukaemia
Description: (§1) Following NCI protocol, sixteen MPCs were screened for their potential in vitro anticancer effects against human 59 cancer cell panels including prostate, leukaemia melanoma, colon, breast, CNS, renal, NSCLC, and ovarian cancers by National Cancer Institute (USA)[30].
(§2) The antiproliferative activities of MPC 3 and MPCs 5a–o were first evaluated in a 10 µM dose assay, with SRB assay used to determine cell survival and proliferation. […] The results of the cell growth inhibitory activities for MPCs 5g and 5l towards the different treated tumour cell lines were presented as GI% and presented in Table 3.
(§3) The anticancer test was conducted using the methods of the Drug Evaluation Branch, National Cancer Institute, Bethesda, MD, using 59 human tumour cell lines derived from nine human tissues. The GI50, TGI, and LC50 dose-response parameters were calculated for each medication.

[2] = system: 59 human tumour cell lines; assay: NCI single (10 µM) dose screening, whole panel; assay type: cell-based; details: 10 µM single dose; for Sensitive cells no.: number of the 59 cell lines with GI % more than 20%; for inhibition at 10 µM: Homo sapiens, SRB assay, mean over NCI panel, read-out: mean percentage growth inhibition (mean% GI)
Description: as §1, §2, §3

[3] = system: HCT-15; assay: NCI single (10 µM) dose SRB screening, HCT-15; assay type: cell-based, human; details: 10 µM single dose, HCT-15, Colon cancer
Description: as §1, §2, §3

[4] = system: RPMI-8226; assay: NCI single (10 µM) dose SRB screening, RPMI-8226; assay type: cell-based, human; details: 10 µM single dose, RPMI-8226, Leukaemia
Description: as §1, §2, §3

[5] = system: SF-295; assay: NCI single (10 µM) dose SRB screening, SF-295; assay type: cell-based, human; details: 10 µM single dose, SF-295, CNS cancer
Description: as §1, §2, §3

[6] = system: SW-620; assay: NCI single (10 µM) dose SRB screening, SW-620; assay type: cell-based, human; details: 10 µM single dose, SW-620, Colon cancer
Description: as §1, §2, §3

[7] = system: LOX IMVI; assay: NCI single (10 µM) dose SRB screening, LOX IMVI; assay type: cell-based, human; details: 10 µM single dose, Melanoma
Description: as §1, §2, §3

[8] = system: MDA-MB-468; assay: NCI single (10 µM) dose SRB screening, MDA-MB-468; assay type: cell-based, human; details: 10 µM single dose, MDA-MB-468, Breast cancer
Description: as §1, §2, §3

[9] = system: PC-3; assay: NCI single (10 µM) dose SRB screening, PC-3; assay type: cell-based, human; details: 10 µM single dose, PC-3, Prostate cancer
Description: as §1, §2, §3

[10] = system: COLO 205; assay: NCI single (10 µM) dose SRB screening, COLO 205; assay type: cell-based, human; details: 10 µM single dose, COLO 205, Colon cancer
Description: as §1, §2, §3

[11] = system: HS 578 T; assay: NCI single (10 µM) dose SRB screening, HS 578 T; assay type: cell-based, human; details: 10 µM single dose, Breast cancer
Description: as §1, §2, §3

[12] = system: NCI/ADR-RES; assay: NCI single (10 µM) dose SRB screening, NCI/ADR-RES; assay type: cell-based, human; details: 10 µM single dose, Ovarian cancer
Description: as §1, §2, §3

[13] = system: SF-539; assay: NCI single (10 µM) dose SRB screening, SF-539; assay type: cell-based, human; details: 10 µM single dose, SF-539, CNS cancer
Description: as §1, §2, §3

[14] = system: KM 12; assay: NCI single (10 µM) dose SRB screening, KM 12; assay type: cell-based, human; details: 10 µM single dose, KM 12, Colon cancer
Description: as §1, §2, §3

[15] = system: MALME-3M; assay: NCI single (10 µM) dose SRB screening, MALME-3M; assay type: cell-based, human; details: 10 µM single dose, Melanoma
Description: as §1, §2, §3

[16] = system: OVCAR-8; assay: NCI single (10 µM) dose SRB screening, OVCAR-8; assay type: cell-based, human; details: 10 µM single dose, OVCAR-8, Ovarian cancer
Description: as §1, §2, §3

[17] = system: HCT-116; assay: NCI single (10 µM) dose SRB screening, HCT-116; assay type: cell-based, human; details: 10 µM single dose, HCT-116, Colon cancer
Description: as §1, §2, §3

[18] = system: SN 12 C; assay: NCI single (10 µM) dose SRB screening, SN 12 C; assay type: cell-based, human; details: 10 µM single dose, Renal cancer
Description: as §1, §2, §3

[19] = system: M14; assay: NCI single (10 µM) dose SRB screening, M14; assay type: cell-based, human; details: 10 µM single dose, M14, Melanoma
Description: as §1, §2, §3

[20] = system: U251; assay: NCI single (10 µM) dose SRB screening, U251; assay type: cell-based, human; details: 10 µM single dose, U251, CNS cancer
Description: as §1, §2, §3

[21] = system: IGROV1; assay: NCI single (10 µM) dose SRB screening, IGROV1; assay type: cell-based, human; details: 10 µM single dose, IGROV1, Ovarian cancer
Description: as §1, §2, §3

[22] = system: NCI-H226; assay: NCI single (10 µM) dose SRB screening, NCI-H226; assay type: cell-based, human; details: 10 µM single dose, NCI-H226, NSC lung cancer
Description: as §1, §2, §3

[23] = biological target: T1, hCA IX (Homo sapiens, UniProt Q16790); assay: stopped-flow CO2 hydrase assay, hCA IX; assay type: biochemical; details: for Selectivity index (SI) (KI off-target CA/KI target CA) Towards hCA IX: ratio of KI for hCA I and II relative to hCA IX; for Ki: stopped-flow, incubation time of 6 h, mean of three assays, read-out: KI CA IX
T1 construct: made in house
Description: The newly synthesised MPCs (3 and 5a–o) were assessed for their CA inhibition activity employing the stopped-flow CO2 hydrase assay[29] for constitutional hCA (I/II) isoforms and cancer-linked hCA (IX/XII) isoforms.
The CA inhibition activity for the herein reported MPC derivatives was evaluated against the hCA isoforms I, II, IX, and XII using stopped-flow CO2 hydrase test[7]^,[33–36] (see the Supplementary Material).
Carbonic anhydrase inhibition assay
The carbonic anhydrase catalyzed CO2 hydration actions for all coumarin-based […]
Photophysics stopped-flow. The enzymes are recombinant proteins prepared in our lab. Phenol red (at a concentration of 0.2 mM) has been used as indicator, working at […]
mM Na2SO4 (for maintaining constant the ionic strength), following the initial rates of the CA-catalyzed CO2 hydration reaction for a period of 10-100 s. The CO2 concentrations ranged from 1.7 to 17 mM for the determination of the kinetic parameters and inhibition constants. For each inhibitor at least six traces of the initial 5-10% of the reaction have been used for determining the initial velocity. The uncatalyzed rates were determined in the same manner and subtracted from the total observed rates. Stock solutions of inhibitor (0.1 mM) were prepared in distilled-deionized water and dilutions up to 0.01 nM were done thereafter with the assay buffer. Inhibitor and enzyme solutions were preincubated together for 6 hrs. at room temperature prior to assay, in order to allow for the formation of the E-I complex. The inhibition constants were obtained by non-linear least-squares methods using PRISM 3 and the Cheng-Prusoff equation, and represent the mean from at least three different

[24] = system: OVCAR-5; assay: NCI single (10 µM) dose SRB screening, OVCAR-5; assay type: cell-based, human; details: 10 µM single dose, OVCAR-5, Ovarian cancer
Description: as §1, §2, §3

[25] = system: CCRF-CEM; assay: NCI single (10 µM) dose SRB screening, CCRF-CEM; assay type: cell-based, human; details: 10 µM single dose, Leukaemia
Description: as §1, §2, §3

[26] = system: EKVX; assay: NCI single (10 µM) dose SRB screening, EKVX; assay type: cell-based, human; details: 10 µM single dose, NSC lung cancer
Description: as §1, §2, §3

[27] = system: SK-MEL-2; assay: NCI single (10 µM) dose SRB screening, SK-MEL-2; assay type: cell-based, human; details: 10 µM single dose, SK-MEL-2, Melanoma
Description: as §1, §2, §3

[28] = system: HOP-92; assay: NCI single (10 µM) dose SRB screening, HOP-92; assay type: cell-based, human; details: 10 µM single dose, HOP-92, NSC lung cancer
Description: as §1, §2, §3

## Cc1nc(-c2cc3ccccc3oc2=O)ccc1C(=O)/C=C/c1ccc(N2CCOCC2)cc1 [Compound 5g, 3-(6-Methyl-5-[(2E)-3-[4-(morpholin-4-yl)phenyl]prop-2-enoyl]pyridin-2-yl)-2H-chromen-2-one]
[1]
  GI %: 33%
[2]
  Sensitive cells no.: 31
  inhibition at 10 µM: 28%
[3]
  GI %: 45%
[4]
  GI %: – (Only GI % more than 20% are displayed.)
[5]
  GI %: 33%
[6]
  GI %: – (Only GI % more than 20% are displayed.)
[7]
  GI %: 68%
[8]
  GI %: 54%
[9]
  GI %: – (Only GI % more than 20% are displayed.)
[10]
  GI %: – (Only GI % more than 20% are displayed.)
[11]
  GI %: 40%
[12]
  GI %: 32%
[13]
  GI %: 54%
[14]
  GI %: 31%
[15]
  GI %: 42%
[16]
  GI %: – (Only GI % more than 20% are displayed.)
[17]
  GI %: – (Only GI % more than 20% are displayed.)
[18]
  GI %: – (Only GI % more than 20% are displayed.)
[19]
  GI %: 54%
[20]
  GI %: – (Only GI % more than 20% are displayed.)
[21]
  GI %: – (Only GI % more than 20% are displayed.)
[22]
  GI %: – (Only GI % more than 20% are displayed.)
[23]
  Selectivity index (SI) (KI off-target CA/KI target CA) Towards hCA IX: >8.33
  Ki: 12 µM
[24]
  GI %: – (Only GI % more than 20% are displayed.)
[25]
  GI %: 27%
[26]
  GI %: – (Only GI % more than 20% are displayed.)
[27]
  GI %: – (Only GI % more than 20% are displayed.)
[28]
  GI %: – (Only GI % more than 20% are displayed.)

## Cc1nc(-c2cc3ccccc3oc2=O)ccc1C(=O)/C=C/c1ccccn1 [Compound 5l, 3-(6-Methyl-5-[(2E)-3-(pyridin-2-yl)prop-2-enoyl]pyridin-2-yl)-2H-chromen-2-one]
[1]
  GI %: 72%
[2]
  Sensitive cells no.: 42
  inhibition at 10 µM: 50%
[3]
  GI %: 133%
[4]
  GI %: 136%
[5]
  GI %: 28%
[6]
  GI %: 98%
[7]
  GI %: 184%
[8]
  GI %: 39%
[9]
  GI %: 31%
[10]
  GI %: – (Only GI % more than 20% are displayed.)
[11]
  GI %: – (Only GI % more than 20% are displayed.)
[12]
  GI %: 22%
[13]
  GI %: 97%
[14]
  GI %: 93%
[15]
  GI %: – (Only GI % more than 20% are displayed.)
[16]
  GI %: 30%
[17]
  GI %: 121%
[18]
  GI %: 52%
[19]
  GI %: – (Only GI % more than 20% are displayed.)
[20]
  GI %: 92%
[21]
  GI %: 93%
[22]
  GI %: – (Only GI % more than 20% are displayed.)
[23]
  Selectivity index (SI) (KI off-target CA/KI target CA) Towards hCA IX: >26.32
  Ki: 3.8 µM
[24]
  GI %: 39%
[25]
  GI %: 93%
[26]
  GI %: – (Only GI % more than 20% are displayed.)
[27]
  GI %: – (Only GI % more than 20% are displayed.)
[28]
  GI %: – (Only GI % more than 20% are displayed.)
